From ChEMBL document CHEMBL1153782, “3D QSAR study of the toxicity of trichothecene mycotoxins” (Eur J Med Chem, 2009) come the findings set out here.

Assay [1] has as its system Saccharomyces cerevisiae. Description: Cytotoxicity against yeast cells relative to Tetraol. In kind it is functional, organism-based.
In assay [2] the test system is Saccharomyces cerevisiae. Put plainly: Cytotoxicity against yeast cells assessed as logarithm of ratio of toxicity of test compound to Tetraol. In kind it is functional, organism-based.

As for `CC(=O)OC[C@]12CCC(C)=C[C@H]1O[C@@H]1[C@H](OC(C)=O)[C@@H](OC(C)=O)[C@@]2(C)[C@]12CO2`, in assay [1], the Ratio came out at 2.2. The Activity in assay [2] was found to be 2.2.
As to `CC(=O)OC[C@]12CCC(C)=C[C@H]1O[C@@H]1[C@H](O)[C@@H](OC(C)=O)[C@@]2(C)[C@]12CO2`, in assay [1], the Ratio came to 343. For the same compound, the Activity in assay [2] worked out at 343.
